In patent USRE47786E1, “Haloalkyl heteroaryl benzamide compounds” (Romark Laboratories, L.C., priority 2009, dated 2019):

Columns and labels:
HBV = HBV extracellular virion antiviral assay in 2.2.15 cells; type: cell-based; details: Hepatitis B virus, extracellular virion HBV DNA, nine daily doses
Method: (§1) HBV antiviral assays were conducted as previous described [Korba and Gerin, Antiviral Res. 19:55 (1992 Confluent cultures of 2.2.15 cells were maintained on 96-well flat-bottomed tissue culture plates (confluence in this culture system is required for active, high levels of HBV replication equivalent to that observed in chronically-infected individuals [Sells et al. J. Virol. 62, 2836-2844 (1988); Korba and Gerin (1992)]. Cultures were treated with nine consecutive daily doses of the test compounds. HBV DNA levels were assessed by quantitative blot hybridization 24 hr. after the last treatment. Cytotoxicity was assessed by uptake of neutral red dye 24 hr. following the last treatment.
EC50, EC90 and CC50 values (±standard deviations [S.D.]) were calculated by linear regression analysis using data combined from all treated cultures (Korba and Gerin, 1992; Okuse et al., 2005). […] CC50 is the drug concentration at which a 2-fold lower level of neutral red dye uptake (relative to the average levels in untreated cultures) was observed. Selectivity index (S.I.) was calculated as CC50/EC90 for HBV assays and CC50/EC50 for HCV assays. EC90 values were used for calculation of the S.I. in HBV assays since at least a 3-fold depression of HBV DNA levels is typically required to achieve statistical significance in this assay system (Korba and Gerin, 1992). For combination treatments, EC50, EC90, CC50 and S.I. are presented for the first compound listed. The molar ratio of the compounds in each combination is also indicated.

[1] = Cytotoxicity by neutral red dye uptake in HBV assay cultures; type: cell-based; details: human, confluent 2.2.15 cells (HBV-replicating), nine daily doses
Method: as §1
(§2) EC50, EC90 and CC50 values (±standard deviations [S.D.]) were calculated by linear regression analysis using data combined from all treated cultures (Korba and Gerin, 1992; Okuse et al., 2005). EC50 and EC90 are drug concentrations at which a 2-fold, or a 10-fold depression of intracellular HBV DNA or HCV RNA (relative to the average levels in untreated cultures), respectively, was observed. CC50 is the drug concentration at which a 2-fold lower level of neutral red dye uptake (relative to the average levels in untreated cultures) was observed. Selectivity index (S.I.) was calculated as CC50/EC90 for HBV assays and CC50/EC50 for HCV assays. EC90 values were used for calculation of the S.I. in HBV assays since at least a 3-fold depression of HBV DNA levels is typically required to achieve statistical significance in this assay system (Korba and Gerin, 1992). For combination treatments, EC50, EC90, CC50 and S.I. are presented for the first compound listed. The molar ratio of the compounds in each combination is also indicated.

[2] = test system: HCV replicon cell line, AVAS (sub-genomic CONI, genotype 1b); experiment: Primary HCV replicon cell assay, genotype 1B; type: cell-based; details: Hepatitis C virus, 72 h
Method: (§3) Antiviral activity of test compounds was assessed in a 3-day assay using the stably-expressing HCV replicon cell line, AVAS (sub-genomic CONI, genotype 1b) [Blight et al., Science 290, 1972-1974 (2000)] maintained as sub-confluent cultures on 96-well plates as previously described (Okuse et al., Antiviral Research 65, 23-34 (2005)]. Antiviral activity was determined by blot hybridization analysis of intracellular HCV RNA (normalized to the level of cellular B-actin RNA in each culture sample) and cytotoxicity was assessed by neutral red dye uptake after 3 days of treatment. Additional studies were performed using Huh7 cells containing another HCV replicon, H/FL-Neo, a genotype 1a full length construct [Blight et al., J. Virol. 77, 3181-3190 (2003)]. For studies involving human serum, standard culture medium (which contains 10% fetal bovine serum) and assay conditions were maintained.
as §2

[3] = Cytotoxicity by neutral red dye uptake in HCV replicon cells; type: cell-based; details: human, HCV replicon cell line AVAS (sub-genomic CONI), HCV replicon cells genotype 1B
Method: as §3, §2

Hep-2 cells = details: human
37RC cells = experiment: Toxicity (MTT) in 37RC cells
MDCK cells = experiment: Toxicity (MTT) in MDCK cells
HeLa R19 cells [4] = experiment: Toxicity (MTT) in HeLa R19 cells (Rhinovirus section)
HeLa R19 cells [5] = experiment: Toxicity (MTT) in HeLa R19 cells (Adenovirus section)
MA104 cells [6] = experiment: Toxicity (MTT) in MA104 cells (Rotavirus SA11 section)
MA104 cells [7] = experiment: Toxicity (MTT) in MA104 cells (Rotavirus WAG8P1 section)
A72 cells = experiment: Toxicity (MTT) in A72 cells
HeLa cells = experiment: Toxicity (MTT) in HeLa cells
MA104 cells [8] = experiment: Toxicity (MTT) in MA104 cells (Rhabdovirus section)

Compound | EC50 (HBV) [µM] | EC90 (HBV) [µM] | CC50 at 9 days [1] [µM] | EC50 [2] [µM] | EC90 [2] [µM] | CC50 at 3 days [3] [µM] | melting point | Toxicity LD50 (MTT) (Hep-2 cells) [µg/mL] | Toxicity LD50 (MTT) (37RC cells) [µg/mL] | Toxicity LD50 (MTT) (MDCK cells) [µg/mL] | Toxicity LD50 (MTT) (HeLa R19 cells [4]) [µg/mL] | Toxicity LD50 (MTT) (HeLa R19 cells [5]) [µg/mL] | Toxicity LD50 (MTT) (MA104 cells [6]) [µg/mL] | Toxicity LD50 (MTT) (MA104 cells [7]) [µg/mL] | Toxicity LD50 (MTT) (A72 cells) [µg/mL] | Toxicity LD50 (MTT) (HeLa cells) [µg/mL] | Toxicity LD50 (MTT) (MA104 cells [8]) [µg/mL]
O=C(Nc1ncc(C(F)(F)F)s1)c1ccccc1O [Compound 2] | 3.2 to 4 | > 4 | > 100 | 0.005 to 0.05 | 0.005 to 0.05 | 0.46 | 260 to 264 °C (dec.) | – | – | – | – | – | – | – | – | – | –
CC(=O)Oc1ccccc1C(=O)Nc1ncc([N+](=O)[O-])s1 [Nitazoxanide, reference compound] | 0.05 to 0.2 | 0.8 to 3.2 | > 100 | 0.05 to 0.5 | 0.5 to 10 | 32 | – | >50 | >50 | >50 | >50 | >50 | >50 | >50 | – | – | –
O=C(Nc1nnc(C(F)(F)F)s1)c1ccccc1O [Compound 6] | > 4 | > 4 | > 100 | < 5 | > 5 | 5.3 | – | >50 | – | – | – | – | – | – | – | – | –
CC(=O)Oc1ccccc1C(=O)Nc1nnc(C(F)(F)F)s1 [Compound 5] | > 4 | > 4 | > 100 | < 5 | > 5 | 15 | – | – | >50 | >50 | – | – | – | – | – | – | –
O=C(Nc1ncc([N+](=O)[O-])s1)c1ccccc1O [Tizoxanide] | 0.05 to 0.2 | 0.8 to 3.2 | > 100 | 0.05 to 0.5 | 0.5 to 10 | 15 | – | 50 | >50 | >50 | >50 | 0.8 | >50 | >50 | >50 | 3 | 50
CC(=O)Oc1ccccc1C(=O)Nc1ncc(C(F)(F)F)s1 [Compound 1] | 3.2 to 4 | > 4 | > 100 | < 5 | > 5 | 3.7 | – | >50 | – | – | >50 | 4 | – | – | – | – | –
O=C(Nc1nc(C(F)(F)F)cs1)c1ccccc1O [Compound 4] | > 4 | > 4 | > 100 | – | – | – | – | >50 | – | – | – | – | – | – | – | – | –
CC(=O)Oc1ccccc1C(=O)Nc1nc(C(F)(F)F)cs1 [Compound 3] | > 4 | > 4 | > 100 | – | – | – | – | >50 | – | – | – | – | – | – | – | – | –
